Data taken from article PMC9751883, “Discovery of new potent lysine specific histone demythelase-1 inhibitors (LSD-1) using structure based and ligand based molecular modelling and machine learning” (RSC Advances, 2022).
Where two headings read alike, the source gives them in different places. Where a SMILES comes first, the peptide text is derived from it. Bridges are numbered along the chain shown (N, C = ends). Roman numbers before positions name the chains, in order.

Key:
[1] = test system: neuroblastoma SH-SY5Y cells; test: MTT cell viability assay on SH-SY5Y cells; format: cell-based; conditions: for Experimental % inhibition Without verapamil At 50 μM: 72 h
Method: The anticancer effects of captured hits were evaluated against SH-SY5Y (Neuroblastoma, CRL-2266), Panc-1 (pancreatic carcinoma, CRL-1469) and U-87 MG (glioblastoma, HTB-14) cells. Details about growth conditions, cell harvesting and counting are available in ESI Sections SM12–SM14. ^† The cancer killing profiles of tested compounds were evaluated colorimetrically using the Cell Titer Non-Radioactive Cell Proliferation Assay Kit® (Promega, USA) based on the reduction of a yellow tetrazole, 3-(4,5-Dimethylthiazol-2-yl)-2, 5-diphenyl tetrazolium bromide (MTT), to a purple formazan, a process that takes place in the mitochondria of viable cells (details are in ESI Sections SM12–SM14 ^†).[98,99]
As SH-SY5Y cells highly express ATP binding cassette subfamily B member 1 (ABCB1, MDR1, normalized expression, NX: 36.8%),[100] cell resistance were reversed using verapamil (10 μM), which was added with each hit, and incubated with cells for 72 hours for subsequent MTT viability assay.[101,102] Finally, MTT cell proliferation assay results were analysed using GraphPad Prism 8.0 (GraphPad Software, Inc). […] Measurements were repeated in triplicates.
• MTT Cell Proliferation Assay
Inhibitory effect of the hits on SH-SY5Y cells were evaluated by a colorimetric method of CellTiter Non-Radioactive Cell Proliferation Assay Kit® (Promega, USA), based on the reduction of a yellow tetrazole, 3-(4,5-Dimethylthiazol-2-yl)-2, 5-diphenyl tetrazolium bromide (MTT), to a purple formazan, a process that take place in the mitochondria of viable cells.
Briefly, the cells were seeded onto 96-well plates (Greiner, Germany) at a concentration of 2×10^4 cells/well and incubated for 24 hours through which cells are attached to the walls of the wells.
Subsequently, hits under concern were screened on 50 µM and 10 µM concentrations (100 μL/ well). Each concentration was added in triplicates, and every plate contained a control of cells in plain medium. The cells were then incubated at 37 °C for 72 hours. After incubation, the media were aspirated from the wells and replaced by fresh media (100 μL/ well), and 15 µl MTT dye solution. The plates were incubated at 37 °C for four hours, and then 50 μL of solublization/stop solution was added to each well. Optical density (OD) at 560 nm wavelength was recorded one hour later using a 96-well plate reader (GloMax, Promega).
• Reversal of SH-SY5Y resistance by verapamil
As SH-SY5Y cells are highly expressing ATP binding cassette subfamily B member 1 (ABCB1, MDR1) (Normalized expression, NX: 36.8%) 100, cell resistance were reversed using 10 µM concentration of verapamil added with each hit and incubated with cells for 72 hours for subsequent MTT viability assay 101,102.

LSD-1 = target: T1, LSD-1 (Homo sapiens, UniProt O60341); conditions: cited from earlier work
T1 construct: purchased Cayman Chemical-USA 700120

[2] = Tables SM1 and SM2, read-out: IC50

Row | SMILES | Experimental % inhibition Without verapamil At 50 μM [1] [%] | IC50 (LSD-1; [2]) [nM] | also measured
1 | COc1ccccc1[C@@H](Cc1ccc(N2C(N)=NC(N)=NC2(C)C)cc1)C(=O)Nc1ccc(S(=O)(=O)F)cc1 [Hit 305] | 55.91 |  | 
2 | COCc1ccc(NC(=O)c2cc3sccc3n2C)cc1 [Cpd 232] |  | 100000 | 
3 | O=C(Nc1ccccc1)c1ccc2sccc2c1 [Cpd 227] |  | 100000 | 
4 | CCn1c(C(=O)Nc2cccc(COC)c2COc2ccc(OCC3CCNC3)cc2)cc2sccc21 (centres unmarked) [Cpd 229] |  | 6.7 | 
5 | CNCCCOc1ccc(OCc2ccccc2NC(=O)c2cc3sccc3n2C)cc1 [Cpd 242] |  | 1300 | 
6 | CCOCc1cccc(NC(=O)c2cc3sccc3n2C)c1COc1ccc(OCC2CCNC2)cc1 (centres unmarked) [Cpd 246] |  |  | IC50 (LSD-1; ref ESI Table SM2, read-out: IC50 of the complexed ligand in 5LHI): 7.8 nM
7 | N[C@@H](CSSC[C@H](N)C(=O)N[C@@H](Cc1ccc(O)cc1)C(=O)O)C(=O)N[C@@H](Cc1ccc(O)cc1)C(=O)O [Hit 309] (I: H-Cys-Tyr-OH / II: H-Cys-Tyr-OH; disulfide I:1-II:1) | 45.58 |  | 
8 | N[C@@H]1C[C@H]1c1ccccc1 (racemic) [Tranylcypromine, reference compound] | 27.83 |  | 
9 | Cn1c(C(=O)Nc2ccccc2COc2ccc(OC3CCN(Cc4ccccc4)CC3)cc2)cc2sccc21 [Cpd 239] |  | 100000 | 
10 | C#Cc1ccc(-c2cc(OCC3CCNCC3)cnc2-c2ccc(C)cc2)cc1 [Cpd 259] |  |  | Ki (LSD-1; Table SM1): 50 µM
11 | Cn1c(C(=O)Nc2cccc(CN3CCOCC3)c2COc2ccc(OC3CCNCC3)cc2)cc2sccc21 [Cpd 248] |  | 65 | Ki or IC50 (LSD-1; potent inhibitors selected for docking, ref Table SM1): ≤ 200 nM
12 | CCN(CC)CCOC(=O)c1ccc(NC(=O)OCC(C)OC(=O)Nc2ccc(C(=O)OCCN(CC)CC)cc2)cc1 (centres unmarked) [Hit 293] | 26.82 |  | 
13 | CC1(C)N=C(N)N=C(N)N1c1ccc(CNC(=O)Nc2ccc(S(=O)(=O)F)cc2)cc1 [Hit 290] | 46.79 |  | 
14 | c1ccc(-c2cc(OCC3CCNCC3)cnc2-c2ccccc2)cc1 [Cpd 250] |  |  | Ki (LSD-1; Table SM1): 50 µM
15 | Cn1c(C(=O)Nc2ccccc2COc2ccc(OC3CCC(N)CC3)cc2)cc2sccc21 (centres unmarked) [Cpd 241] |  | 340 | 
16 | CC1(C)N=C(N)N=C(N)N1c1ccc(OCCNC(=O)Nc2ccc(S(=O)(=O)F)cc2)c(Cl)c1 [Hit 291] | 49.67 |  | 
17 | Cc1ccc(NC(=O)CCc2ccc(N3C(N)=NC(N)=NC3(C)C)cc2Cl)cc1S(=O)(=O)F [Hit 295] | 47.38 |  | 
18 | COCc1cccc(NC(=O)c2cc3sccc3n2C)c1COc1ccc(OC2CCCNCC2)cc1 (centres unmarked) [Cpd 245] |  | 29.2 | 
19 | Cn1c(C(=O)Nc2ccccc2OCC2CCN(CC3CCNCC3)CC2)cc2sccc21 [Cpd 243] |  | 1700 | 
20 | Cc1cc(S(=O)(=O)F)ccc1NC(=O)NCc1ccc(N2C(N)=NC(N)=NC2(C)C)cc1 [Hit 302] | 24.16 |  | 
21 | CC(=NNC(=O)c1cccc(S(=O)(=O)N2CCOCC2)c1)c1ccnc(Cl)c1 [Cpd 274] |  |  | IC50 (LSD-1; Table SM1, read-out: IC50): 3000 nM
22 | N=C(N)c1ccc(OCCCCCCOc2ccc(C(=N)N)cc2)cc1 [Hit 288] | 88.50 |  | IC50 ([1]; in presence of verapamil (10 μM), read-out: In vitro IC50): 240 ± 30 nM
23 | Cn1c(C(=O)Nc2ccccc2COc2ccc(N3CCNCC3)cc2)cc2sccc21 [Cpd 238] |  | 1500 | 
24 | CN1CCC(Oc2ccc(OCc3ccccc3NC(=O)c3cc4sccc4n3C)cc2)CC1 [Cpd 235] |  | 310 | 
25 | COc1cccc(C(Cc2ccc(N3C(N)=NC(N)=NC3(C)C)cc2)C(=O)Nc2ccc(S(=O)(=O)F)cc2)c1 (centres unmarked) [Hit 301] | 37.58 |  | 
26 | C#CCNCCCCC(NC(=O)c1ccccc1)C(=O)OC(C)(C)C (centres unmarked) [Cpd 277] |  |  | IC50 (LSD-1; Table SM1, read-out: IC50): 144000 nM
27 | CC1(C)N=C(N)N=C(N)N1c1ccc(OCC(=O)Nc2ccc(S(=O)(=O)F)cc2)c(Cl)c1 [Hit 294] | 28.17 |  | 
28 | Nc1nc(=O)n(CCCOc2cccc(NC(=O)c3cccc(S(=O)(=O)F)c3)c2)cc1-c1ccc(Cl)c(Cl)c1 [Hit 300] | 86.13 |  | 
29 | Cn1c(C(=O)Nc2ccccc2COc2ccc(OC3CCCNCC3)cc2)cc2sccc21 (centres unmarked) [Cpd 240] |  | 64 | 
30 | COc1ccc(NC(=O)c2cc3sccc3n2C)cc1 [Cpd 234] |  | 100000 | 
